Reference: patent publication US20150159169A1, “Plants Tolerant to HPPD Inhibitor Herbicides” (Bayer CropScience AG, priority 2009, published 2015)
Several values for one entry are separate records, joined by “and”; a condition that tells them apart may be missing. Identical values can stand only once.

Columns and labels:
[1] = system: transgenic soybean shoots (FMP27 protein); assay: Soybean shoot greening on isoxaflutole selection; type: cell-based; details: isoxaflutole as selection marker
From the text: (§1) Soybean transformation was achieved using methods well known in the art, such as the one described using the Agrobacterium tumefaciens mediated transformation soybean half-seed explants described by Paz et al. (2006, Plant cell Rep. 25:206). Transformants were identified using Isoxaflutole as selection marker. The appearance of green shoots was observed, and documented as an indicator of tolerance to the herbicide isoxaflutole. […] Tolerant green shoots were transferred to rooting media or grafted. Rooted plantlets were transferred to the glasshouse after an acclimation period.

wild-type soybean shoots = assay: Soybean shoot greening on isoxaflutole selection; type: cell-based; details: same amount of isoxaflutole
From the text: as §1

[2] = system: T1 tobacco plants containing Arabidopsis HPPD; assay: Glasshouse spray trial, % injury; type: in vivo, Nicotiana tabacum; details: 7DAT, 100 gAI/ha spray
Description: (§2) T0 Tobacco plants containing either the gene from Arabidopsis coding for HPPD or the gene FMP27e from Kordia algicida coding for FMP27 HPPD, mentioned above (Example 3), were transferred to the glasshouse (28/20° C.), to develop further and produce seeds. Those seeds were harvested and put on soil (ED73 mixed with sand and osmocote Pro) to germinate in the glasshouse (28/20° C.). Three to four weeks later, plantlets were transferred to single pots containing the soil mentioned above. Two weeks later, plants of a size 4-6 cm diameter were sprayed with either • tembotrione at 100 gAI/ha prepared from a WP20 (wettable powder 20%) formulation supplemented with ammonium sulfate and methyl ester raps oil, or • isoxaflutole at 100 gAI/ha prepared from a WP20 formulation supplemented with ammonium sulfate and methyl ester raps oil, or • bicyclopyrone at 100 gAI/ha prepared from a WP20 formulation supplemented with ammonium sulfate and methyl ester raps oil, or • “blind formulation” made from a WP20 formulation without active ingredient (AI) supplemented with ammonium sulfate and methyl ester raps oil, and were then transferred to a growth chamber with adequate light conditions (20000 Lux).
(§3) Table 6: Wild type tobacco plants (A) and T1 populations of tobacco events containing alternatively, the expression cassettes described above having the promoter CaMV 35S, the sequence coding for OTP and the sequence coding for Arabidopsis HPPD (B) or the promoter CaMV35S, the sequence encoding OTP, and the sequence FMP27e coding for the HPPD FMP27 (C). Assessments of herbicidal damage at 7 days after application (DAT) per spray with 100 g AI/ha of tembotrione or isoxaflutole supplemented with ammonium sulfate and methyl ester raps oil. […] Plants belonging to categories (B) and (C) have not been selected for the presence of the respective transgene prior to the herbicide application.

[3] = system: T1 tobacco plants containing FMP27e (Kordia algicida HPPD FMP27); assay: Glasshouse spray trial, % injury; type: in vivo, Nicotiana tabacum; details: 7DAT, 100 gAI/ha spray
Description: as §2, §3

wild type tobacco plants = assay: Glasshouse spray trial, % injury; type: in vivo, Nicotiana tabacum; details: 7DAT, 100 gAI/ha spray; individual WT plants; 100% = bleaching as wild type
Description: as §2, §3

SMILES: CS(=O)(=O)c1cc(C(F)(F)F)ccc1C(=O)c1cnoc1C1CC1 [Isoxaflutole, (5-cyclopropyl-4-isoxazolyl)[2-(methylsulfonyl)-4-(trifluoromethyl)phenyl]methanone]
- transgenic tested shoots showing normal greening [1]: 1%
- appearance of shoots treated with isoxaflutole (wild-type soybean shoots): entirely bleached
- % injury ([2]; line 252, individual T1 plants): 30% and 70% and 95% and 98% (2×) and 99% (4×) and 100% (4×)
- % injury ([2]; line 258, individual T1 plants): 100%
- % injury ([2]; line 327, individual T1 plants): 10% and 20% and 60% (2×) and 70% and 80% and 95% and 98% and 99% and 100% (6×)
- % injury ([3]; line 121, individual T1 plants): 0% (4×) and 1% and 2% and 20%
- % injury ([3]; line 129, individual T1 plants): 0% (4×) and 1% (3×) and 2% (3×) and 5% and 10% (2×)
- % injury ([3]; line 218, individual T1 plants): 0% (9×) and 1% (3×) and 2% and 3% and 5%
- % injury (wild type tobacco plants): 99% (2×) and 100% (4×) and 98%
